Activity calls are given as the source filed them.

This is an account of results in ChEMBL document CHEMBL1201862, “PubChem BioAssay data set” (2004).

Assay [1] in a line: HepG2 cell cytotoxicity, dose response, cytotoxicity control, cherry-picked samples (AID 1159577). The assay is classed as functional, cell-based.
Assay [2] is described as follows: IGROV1 ovarian cancer cell cytotoxicity, dose response, PAX8 inhibitor project, plate reader, dry powder samples (AID 743043). The assay is classed as functional, cell-based. The note with it: IGROV-1.
A short description of assay [3]: IOSE-T80 ovarian epithelial cell cytotoxicity, dose response, cytotoxicity control for PAX8 inhibitor project, plate reader, dry powder samples (AID 743045). The assay is classed as functional, cell-based.
Assay [4] in a line: P. falciparum Dd2 growth inhibitors, dose response, SYBR Green, cherry-picked samples (AID 1159567). The assay is classed as functional, cell-based.
Another assay addresses Paired box protein Pax-8 (Homo sapiens, UniProt Q06710). Briefly: inhibitors of PAX8-driven TPO luciferase reporter, dose response, RMG-I cells, cherry-pick (AID 687027).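 Further: luciferase reporter driven by Pax8 target thyroperoxidase promoter measured by SteadyGlo luminescence.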 The assay is classed as functional, cell-based. For orientation: Reporter assays use an easily measured gene product as a stand-in for the process of interest.
A short description of assay [5]: NIH:OVCAR-3 ovarian cancer cell cytotoxicity, dose response, PAX8 inhibitor project, plate reader, dry powder samples (AID 743044). The assay is classed as functional, cell-based.
Assay [6] can be described thus: non-specific cell cytotoxicity, dose response, cytotoxicity control for PAX8 inhibitor project, plate reader, dry powder samples (AID 743021). It counts as functional, cell-based.
Assay [7] in a line: A2780 ovarian cancer cell cytotoxicity, dose response, cytotoxicity control, plate reader, dry powder samples (AID 743046). It counts as functional, cell-based.
Assay [8] can be described thus: cytotoxicity in OVCAR8 ovarian cancer cells, dose response, PAX8 project, cell-based, plate reader, dry powder samples (AID 743197). The assay is classed as functional. Conditions: OVCAR-8.
The nature of assay [9]: inhibitors of PGC1a acetylation in cells, dose response, cell-based, cherry-picked samples (AID 720514).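 Further: potency may reflect raised or lowered acetylation signal.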 It counts as functional.
A short description of assay [10]: Late stage assay provider results from the probe development effort to identify inhibitors of the Plasmodium falciparum M18 Aspartyl Aminopeptidase (M18AAP): radiolabel-based cell-based dose response assay to identify compounds that inhibit P. falciparum growth in RBCs, Set 2.. It counts as functional.
A short description of assay [11]: A549 cell cytotoxicity, dose response, cytotoxicity control, 24 h, CellTiter-Glo luminescence, cherry-picks (AID 1053115). It counts as functional, cell-based. The note with it: A549, 24 h.
The target of assay [12] is Induced myeloid leukemia cell differentiation protein Mcl-1 (Homo sapiens, UniProt Q07820). The assay is classed as functional.
Assay [13] has as its target T1, Carboxy-terminal domain RNA polymerase II polypeptide A small phosphatase 1 (Homo sapiens, UniProt Q9GZU7).
T1 sequence (Q9GZU7 whole entry): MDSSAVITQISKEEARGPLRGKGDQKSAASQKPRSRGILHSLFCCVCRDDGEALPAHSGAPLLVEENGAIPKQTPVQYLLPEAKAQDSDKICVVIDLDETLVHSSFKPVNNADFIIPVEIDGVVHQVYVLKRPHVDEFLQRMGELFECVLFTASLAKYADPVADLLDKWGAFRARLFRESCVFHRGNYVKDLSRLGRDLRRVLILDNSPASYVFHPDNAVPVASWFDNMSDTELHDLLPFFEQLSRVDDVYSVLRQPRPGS
Briefly: inhibitors of CTDSP1, concentration-response testing, biochemical assay, absorbance-based, actives from ultra-high-throughput screening (AID 540297). It counts as functional.

The next assay deals with Estrogen receptor beta (Homo sapiens, UniProt Q92731).
Assay [14] is described as follows: Artemis endonuclease inhibitor potency, dose response, biochemical, fluorescence intensity (AID 720701).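 Further: Artemis endonuclease enzyme.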 The assay is classed as functional.
Assay [15] deals with RNA-editing ligase 1, mitochondrial (Trypanosoma brucei brucei, UniProt P86926). Description: TbREL1 ligase inhibitors, dose response, biochemical, fluorescence, Trypanosoma brucei (AID 1117295). It counts as functional.
Assay [16] deals with G-protein coupled receptor 183 (Homo sapiens, UniProt P32249). Description: SAR confirmation of small molecule antagonists of the EBI2 receptor via a luminescent beta-arrestin assa. The assay is classed as functional.
Assay [17] can be described thus: P. falciparum Dd2 blood-stage growth inhibition, dose response, SYBR Green fluorescence, erythrocytes, dry powder, set 2 (AID 1159574). It counts as functional, cell-based.

Sequence of G-protein coupled receptor 183 (P32249 whole entry): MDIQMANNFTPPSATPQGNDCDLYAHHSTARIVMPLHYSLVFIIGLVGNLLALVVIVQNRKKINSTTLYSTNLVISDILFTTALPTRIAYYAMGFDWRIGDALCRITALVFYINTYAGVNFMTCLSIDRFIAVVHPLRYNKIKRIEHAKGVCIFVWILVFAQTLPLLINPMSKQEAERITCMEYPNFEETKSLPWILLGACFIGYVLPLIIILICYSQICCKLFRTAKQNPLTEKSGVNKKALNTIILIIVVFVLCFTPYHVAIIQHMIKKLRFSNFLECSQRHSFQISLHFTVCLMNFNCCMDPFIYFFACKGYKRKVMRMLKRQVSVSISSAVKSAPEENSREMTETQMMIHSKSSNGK
Sequence of Paired box protein Pax-8 (Q06710 whole entry): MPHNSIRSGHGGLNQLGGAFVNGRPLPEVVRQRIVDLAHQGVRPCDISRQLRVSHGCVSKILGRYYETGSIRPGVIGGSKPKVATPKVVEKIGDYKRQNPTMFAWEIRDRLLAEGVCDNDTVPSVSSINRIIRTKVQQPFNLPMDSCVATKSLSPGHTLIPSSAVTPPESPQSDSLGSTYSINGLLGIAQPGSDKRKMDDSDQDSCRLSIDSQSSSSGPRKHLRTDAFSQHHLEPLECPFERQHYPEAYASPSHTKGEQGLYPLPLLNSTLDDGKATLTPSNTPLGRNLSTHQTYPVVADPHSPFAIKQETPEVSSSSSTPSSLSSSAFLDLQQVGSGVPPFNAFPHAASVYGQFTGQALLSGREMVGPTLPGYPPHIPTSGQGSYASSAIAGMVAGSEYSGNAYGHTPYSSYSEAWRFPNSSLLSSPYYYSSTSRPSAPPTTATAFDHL
Sequence of Estrogen receptor beta (Q92731 whole entry): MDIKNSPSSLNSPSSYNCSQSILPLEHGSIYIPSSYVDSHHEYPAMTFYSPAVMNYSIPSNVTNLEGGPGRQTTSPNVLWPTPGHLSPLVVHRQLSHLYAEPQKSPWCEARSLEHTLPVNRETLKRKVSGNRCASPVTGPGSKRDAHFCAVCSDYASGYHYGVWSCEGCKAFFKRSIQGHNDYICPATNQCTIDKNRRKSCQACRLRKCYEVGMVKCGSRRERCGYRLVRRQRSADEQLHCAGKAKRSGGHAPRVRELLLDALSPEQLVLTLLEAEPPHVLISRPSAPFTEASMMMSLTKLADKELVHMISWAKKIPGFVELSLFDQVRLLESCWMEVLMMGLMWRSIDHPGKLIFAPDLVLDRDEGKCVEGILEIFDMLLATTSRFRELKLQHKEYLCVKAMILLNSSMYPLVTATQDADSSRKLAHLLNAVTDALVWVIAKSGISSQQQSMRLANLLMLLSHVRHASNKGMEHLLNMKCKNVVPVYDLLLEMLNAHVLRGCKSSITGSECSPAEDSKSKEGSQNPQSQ
Sequence of Induced myeloid leukemia cell differentiation protein Mcl-1 (Q07820 whole entry, the tested form may be a part): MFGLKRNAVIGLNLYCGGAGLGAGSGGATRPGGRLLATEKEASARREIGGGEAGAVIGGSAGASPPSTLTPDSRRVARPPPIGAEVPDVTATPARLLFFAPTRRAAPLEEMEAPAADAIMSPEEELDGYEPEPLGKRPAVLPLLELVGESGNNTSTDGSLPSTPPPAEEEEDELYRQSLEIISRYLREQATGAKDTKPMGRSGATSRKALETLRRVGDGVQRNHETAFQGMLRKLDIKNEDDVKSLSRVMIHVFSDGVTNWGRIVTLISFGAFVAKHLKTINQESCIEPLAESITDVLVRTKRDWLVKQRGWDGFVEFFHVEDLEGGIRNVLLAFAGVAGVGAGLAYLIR
Sequence of RNA-editing ligase 1, mitochondrial (P86926 whole entry): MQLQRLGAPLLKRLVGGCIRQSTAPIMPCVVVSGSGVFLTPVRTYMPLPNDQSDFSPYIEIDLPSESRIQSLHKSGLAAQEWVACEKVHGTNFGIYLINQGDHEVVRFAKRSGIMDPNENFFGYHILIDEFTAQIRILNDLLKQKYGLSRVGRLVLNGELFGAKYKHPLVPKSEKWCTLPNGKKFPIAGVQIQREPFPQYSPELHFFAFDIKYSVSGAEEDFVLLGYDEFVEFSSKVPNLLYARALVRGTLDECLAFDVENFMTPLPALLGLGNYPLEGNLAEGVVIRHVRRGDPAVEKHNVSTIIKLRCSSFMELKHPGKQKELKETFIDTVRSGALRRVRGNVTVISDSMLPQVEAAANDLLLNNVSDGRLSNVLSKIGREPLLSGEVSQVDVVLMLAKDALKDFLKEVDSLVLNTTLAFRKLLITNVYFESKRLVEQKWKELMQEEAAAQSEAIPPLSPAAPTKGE

By AC50 is commonly meant the concentration at which the activity in the assay is half-maximal. Regarding `COc1ccc(C#Cc2ccc([C@H]3[C@@H](CO)N4CCCCN(C(=O)Nc5cccc(F)c5)C[C@H]34)cc2)cc1`, the AC50 is 7.31 µM (active) in assay [1]; 21.1 µM (active) in assay [2]; 32.3 µM (active) in [3]; 1.28 µM (active) in [4]; 10.9 µM (active) on Paired box protein Pax-8; 10 µM (active) in [5]. For the same compound, the concentration at half-maximal activity (AC50) was 32.1 µM (active) in assay [6], 12.2 µM (active) in [7] and > 70 µM (inactive) in [8].

Regarding `COc1cc(CN2C[C@@H]3N[C@H](C2)[C@@H]3c2ccc(-c3cccc(OC)c3)cc2)cc(OC)c1`, in assay [9], the concentration at half-maximal activity (AC50) is 9.18 µM (active).

For orientation: IC50 means the concentration that gives 50% inhibition. On to `O=c1ccn(CCNc2c3ccccc3nc3ccccc23)cc1OCc1ccccc1`, for which the half-maximal inhibitory concentration (IC50) in assay [10] is 4.7 µM (active).

As for `OC[C@@H]1Nc2ccc(-c3cccc(F)c3)cc2[C@@H]2[C@H]1CCN2Cc1ccc(F)cc1`, the half-maximal activity concentration (AC50) is 17.8 µM (active) in assay [1], 5.68 µM (active) in assay [4] and 52 µM (active) in assay [11].

For `Cc1nc2c(c(=O)n1CCC1=CCCCC1)c1nc3ccccc3nc1n2/N=C/c1ccco1`, the IC50 in assay [12] was 4.9 µM (active); in assay [13], 10.1 µM (active); at Estrogen receptor beta, > 50 µM (not active); in assay [14] it was 18.5 µM (active).

Consider `COC(=O)C1=C(C)N(Cc2ccccc2C(F)(F)F)C(NCc2ccc(OC)cc2)=NC1c1ccccc1` (stereo unspecified), for which the IC50 in [15] was > 96.6 µM (inactive).

As for `O=C(/C=C/c1ccc(F)cc1)N1CCN(S(=O)(=O)c2cccc3ccccc23)CC1`, the half-maximal inhibitory concentration (IC50) in assay [16] was 49.7 nM (active).

For the compound `COc1ccc(S(=O)(=O)N(C)C[C@@H]2OCc3ccccc3-c3c(n(C)c4ccccc34)C(=O)N([C@@H](C)CO)C[C@H]2C)cc1`, the AC50 in assay [17] was 2.27 µM (active).
